From patent publication US20240115575A1, “PHARMACEUTICAL COMPOSITION OF MULTI-TARGET PROTEIN KINASE INHIBITORS, AND USE THEREOF” (CSPC Zhongqi Pharmaceutical Technology (Shijiazhuang) Co., …, priority 2020, published 2024)

Assays:
[1] = system: human non-small cell lung cancer HCC827; experiment: In-vivo anti-tumor test, non-small cell lung cancer model; details: orally administered once daily for 30 days
Method: (§1) According to the in-vivo anti-tumor test described under Biological Assessment of the Patent Application No. WO 2011/147066, the samples of the salt obtained in Preparation Example 2 were tested (specifically for FLT3-ITD acute myeloid leukemia, non-small cell lung cancer with EGFR activating mutation, and Ph-positive chronic myeloid leukemia, respectively).

BTK = BTK (Homo sapiens, UniProt Q06187); experiment: Evaluation of the inhibitory activity of kinase; format: biochemical
Method: (§2) The samples of the salt obtained in Preparation Example 2 were tested according to the evaluation of the inhibitory activity of kinase described under Biological Assessment of the Patent Application No. WO 2011/147066.

c-KIT = c-KIT (Homo sapiens, UniProt P10721); experiment: Evaluation of the inhibitory activity of kinase; format: biochemical
Method: as §2

ALK = ALK (Homo sapiens, UniProt Q9UM73); experiment: Evaluation of the inhibitory activity of kinase; format: biochemical
Method: as §2

MET = MET (Homo sapiens, UniProt P08581); experiment: Evaluation of the inhibitory activity of kinase; format: biochemical
Method: as §2

VEGFR2 = VEGFR2 (Homo sapiens, UniProt P35968); experiment: Evaluation of the inhibitory activity of kinase; format: biochemical
Method: as §2

PDGFRα = PDGFRα (Homo sapiens, UniProt P16234); experiment: Evaluation of the inhibitory activity of kinase; format: biochemical
Method: as §2

[2] = API-excipient compatibility test; format: physicochemical; details: 14 days and 28 or 30 days; illumination, 60° C., high humidity; maximum single impurity, total impurity, color
Method: The active ingredient (compound of Formula B) was mixed evenly with various excipients mentioned in the present application respectively, and put in 10-ml injection vials. The injection vials were stored for 14 days and 28 days or 30 days under the conditions of an illumination of 4500 lux±500 lux/peripheral humidity, a high temperature of 60° C.±2° C./peripheral humidity, a high humidity of 90%±5% RH, and a temperature of 25° C.±2° C. respectively to detect the impurity content, so as to test the compatibility of the active ingredient with various excipients.

[3] = system: MV4-11 (FLT3-ITD mutation) subcutaneous tumor; experiment: In-vivo anti-tumor test, MV4-11 subcutaneous tumor model; details: orally administered once daily for 21 days
Method: as §1

ALK, sequence (Q9UM73 19-1620): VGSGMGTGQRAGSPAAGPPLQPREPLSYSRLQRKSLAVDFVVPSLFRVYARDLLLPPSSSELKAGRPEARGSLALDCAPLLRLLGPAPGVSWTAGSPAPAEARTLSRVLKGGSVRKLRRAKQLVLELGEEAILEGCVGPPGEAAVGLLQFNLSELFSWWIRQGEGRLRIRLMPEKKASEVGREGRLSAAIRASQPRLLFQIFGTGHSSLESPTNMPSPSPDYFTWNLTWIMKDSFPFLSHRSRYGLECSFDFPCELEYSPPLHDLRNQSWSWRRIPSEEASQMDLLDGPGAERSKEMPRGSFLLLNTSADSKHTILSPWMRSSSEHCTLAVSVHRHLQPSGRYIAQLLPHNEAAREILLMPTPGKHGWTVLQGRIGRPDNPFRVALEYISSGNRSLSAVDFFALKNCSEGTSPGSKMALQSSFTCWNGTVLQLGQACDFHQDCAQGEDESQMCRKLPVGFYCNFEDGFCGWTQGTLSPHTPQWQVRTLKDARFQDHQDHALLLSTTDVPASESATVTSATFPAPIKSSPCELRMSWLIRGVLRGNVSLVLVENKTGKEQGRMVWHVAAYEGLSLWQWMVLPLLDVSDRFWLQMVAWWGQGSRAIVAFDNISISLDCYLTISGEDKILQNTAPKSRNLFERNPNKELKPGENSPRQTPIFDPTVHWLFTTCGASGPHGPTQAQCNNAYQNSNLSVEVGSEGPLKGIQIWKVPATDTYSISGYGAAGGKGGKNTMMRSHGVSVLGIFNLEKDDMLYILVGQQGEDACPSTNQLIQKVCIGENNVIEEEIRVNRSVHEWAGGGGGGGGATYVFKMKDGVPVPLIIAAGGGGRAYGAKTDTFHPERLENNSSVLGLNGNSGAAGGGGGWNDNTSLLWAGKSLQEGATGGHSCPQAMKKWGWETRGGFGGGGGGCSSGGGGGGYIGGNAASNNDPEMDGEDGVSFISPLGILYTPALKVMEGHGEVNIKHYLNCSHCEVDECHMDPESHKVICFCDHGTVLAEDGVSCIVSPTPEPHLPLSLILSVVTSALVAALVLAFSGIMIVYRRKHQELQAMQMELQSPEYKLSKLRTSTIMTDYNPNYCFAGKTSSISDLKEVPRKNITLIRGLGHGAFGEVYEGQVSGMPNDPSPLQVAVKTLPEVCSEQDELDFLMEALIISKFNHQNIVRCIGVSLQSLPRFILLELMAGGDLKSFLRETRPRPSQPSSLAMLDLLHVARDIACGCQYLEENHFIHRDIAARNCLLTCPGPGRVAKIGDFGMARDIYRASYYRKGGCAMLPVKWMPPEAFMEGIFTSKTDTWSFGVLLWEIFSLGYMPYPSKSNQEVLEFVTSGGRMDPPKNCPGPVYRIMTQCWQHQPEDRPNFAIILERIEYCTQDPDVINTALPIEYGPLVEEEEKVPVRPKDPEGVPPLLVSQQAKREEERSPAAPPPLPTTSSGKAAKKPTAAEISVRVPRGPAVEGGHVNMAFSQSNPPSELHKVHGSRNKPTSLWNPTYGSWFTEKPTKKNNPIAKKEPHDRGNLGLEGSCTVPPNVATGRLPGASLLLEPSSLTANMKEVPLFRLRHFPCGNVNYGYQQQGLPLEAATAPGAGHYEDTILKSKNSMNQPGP
c-KIT, sequence (P10721 26-976): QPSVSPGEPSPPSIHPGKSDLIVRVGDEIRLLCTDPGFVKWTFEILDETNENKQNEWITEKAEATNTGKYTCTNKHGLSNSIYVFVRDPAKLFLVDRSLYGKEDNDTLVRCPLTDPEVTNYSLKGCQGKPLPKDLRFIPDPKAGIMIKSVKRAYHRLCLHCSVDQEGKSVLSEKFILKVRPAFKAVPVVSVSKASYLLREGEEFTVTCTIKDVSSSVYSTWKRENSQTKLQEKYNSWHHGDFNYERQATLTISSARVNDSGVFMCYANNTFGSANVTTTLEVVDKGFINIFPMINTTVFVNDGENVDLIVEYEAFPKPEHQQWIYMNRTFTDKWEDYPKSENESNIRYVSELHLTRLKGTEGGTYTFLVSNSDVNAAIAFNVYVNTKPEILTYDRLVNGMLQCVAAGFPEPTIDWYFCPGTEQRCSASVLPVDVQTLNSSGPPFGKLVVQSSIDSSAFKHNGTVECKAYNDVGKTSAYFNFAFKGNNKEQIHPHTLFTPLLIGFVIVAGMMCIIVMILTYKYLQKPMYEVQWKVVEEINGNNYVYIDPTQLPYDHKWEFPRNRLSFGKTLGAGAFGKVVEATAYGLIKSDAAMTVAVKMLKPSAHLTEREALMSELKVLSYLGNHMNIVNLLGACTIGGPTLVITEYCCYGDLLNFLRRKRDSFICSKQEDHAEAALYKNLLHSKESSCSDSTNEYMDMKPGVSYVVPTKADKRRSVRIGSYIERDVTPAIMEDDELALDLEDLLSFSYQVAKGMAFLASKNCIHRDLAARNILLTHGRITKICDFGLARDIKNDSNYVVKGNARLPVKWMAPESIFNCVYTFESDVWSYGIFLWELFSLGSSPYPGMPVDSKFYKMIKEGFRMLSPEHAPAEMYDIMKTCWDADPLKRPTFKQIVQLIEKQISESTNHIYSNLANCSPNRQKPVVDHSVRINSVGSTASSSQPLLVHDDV
BTK, sequence (Q06187 whole entry): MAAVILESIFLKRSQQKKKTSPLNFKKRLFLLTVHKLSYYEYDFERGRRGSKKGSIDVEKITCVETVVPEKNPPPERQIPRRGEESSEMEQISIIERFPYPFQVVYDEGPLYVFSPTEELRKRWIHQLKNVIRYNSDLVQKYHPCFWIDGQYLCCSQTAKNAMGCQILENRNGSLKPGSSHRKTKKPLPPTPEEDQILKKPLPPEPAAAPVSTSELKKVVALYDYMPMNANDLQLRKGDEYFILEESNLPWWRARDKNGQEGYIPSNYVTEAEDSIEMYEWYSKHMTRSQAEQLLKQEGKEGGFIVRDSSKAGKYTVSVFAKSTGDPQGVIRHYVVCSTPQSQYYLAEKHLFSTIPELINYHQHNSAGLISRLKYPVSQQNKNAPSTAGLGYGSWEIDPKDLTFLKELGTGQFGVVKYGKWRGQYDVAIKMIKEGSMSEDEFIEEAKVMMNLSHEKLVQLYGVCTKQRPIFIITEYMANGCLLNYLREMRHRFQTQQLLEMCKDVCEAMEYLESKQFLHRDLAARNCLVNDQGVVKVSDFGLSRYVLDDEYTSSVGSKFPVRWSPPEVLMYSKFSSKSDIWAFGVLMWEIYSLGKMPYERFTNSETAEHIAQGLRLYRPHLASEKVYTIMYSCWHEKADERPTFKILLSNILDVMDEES
PDGFRα, sequence (P16234 24-1089): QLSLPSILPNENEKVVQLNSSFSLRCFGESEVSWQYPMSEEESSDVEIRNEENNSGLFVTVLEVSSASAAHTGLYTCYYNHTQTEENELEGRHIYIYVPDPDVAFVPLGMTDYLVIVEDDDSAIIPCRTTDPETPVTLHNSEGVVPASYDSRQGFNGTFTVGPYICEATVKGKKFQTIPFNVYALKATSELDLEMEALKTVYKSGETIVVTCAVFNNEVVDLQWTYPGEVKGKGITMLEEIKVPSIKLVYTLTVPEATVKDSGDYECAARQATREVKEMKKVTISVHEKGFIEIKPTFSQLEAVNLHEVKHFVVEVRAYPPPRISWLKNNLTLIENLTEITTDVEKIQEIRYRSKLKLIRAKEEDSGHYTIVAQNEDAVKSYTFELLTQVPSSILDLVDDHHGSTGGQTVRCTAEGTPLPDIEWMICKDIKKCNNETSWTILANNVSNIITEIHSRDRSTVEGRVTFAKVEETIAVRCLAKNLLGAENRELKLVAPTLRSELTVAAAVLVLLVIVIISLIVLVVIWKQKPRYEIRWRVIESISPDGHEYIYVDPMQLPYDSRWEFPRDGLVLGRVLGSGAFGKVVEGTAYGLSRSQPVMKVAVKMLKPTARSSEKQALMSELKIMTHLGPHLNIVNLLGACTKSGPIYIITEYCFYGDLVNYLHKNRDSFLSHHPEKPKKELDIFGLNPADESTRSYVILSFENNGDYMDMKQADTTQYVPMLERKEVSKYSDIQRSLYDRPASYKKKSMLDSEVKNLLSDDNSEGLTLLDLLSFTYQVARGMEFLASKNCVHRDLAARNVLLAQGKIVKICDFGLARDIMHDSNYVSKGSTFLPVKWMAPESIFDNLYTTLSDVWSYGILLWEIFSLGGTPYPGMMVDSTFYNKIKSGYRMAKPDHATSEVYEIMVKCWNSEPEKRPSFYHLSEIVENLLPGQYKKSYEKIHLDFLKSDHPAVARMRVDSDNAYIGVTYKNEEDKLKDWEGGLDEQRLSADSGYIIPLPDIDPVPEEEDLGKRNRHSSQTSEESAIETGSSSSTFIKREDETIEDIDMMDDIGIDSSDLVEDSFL

inhibiting the activity of kinase (BTK): capable of inhibiting | inhibiting the activity of kinase (c-KIT): capable of inhibiting | inhibiting the activity of kinase (ALK): capable of inhibiting | inhibiting the activity of kinase (MET): capable of inhibiting | inhibiting the activity of kinase (VEGFR2): capable of inhibiting | inhibiting the activity of kinase (PDGFRα): capable of inhibiting | compatibility of the active ingredient with various excipients [2]: good compatibility
Structure (SMILES): CC(C)n1c(Nc2cccnc2)nc2cnc(Nc3ccc(N4CCN(C)CC4)cc3)nc21 [Preparation Example 2]
effect on tumor (compared with the initial tumor) ([1]; 7.5 mg/kg): tumor shrinkage | effect on tumor (compared with the initial tumor) ([1]; 15 mg/kg): tumor shrinkage | effect on tumor (compared with the initial tumor) ([1]; 30 mg/kg): almost complete tumor regression | effect on growth of HCC827, dose dependence ([1]; 7.5, 15 and 30 mg/kg): dose-dependently inhibit the growth | effect on tumor growth ([3]; 5 mg/kg): completely inhibit the tumor growth | effect on tumor growth ([3]; 10 mg/kg): complete tumor regression | effect on tumor growth ([3]; 20 mg/kg): complete tumor regression
